The structures appear in SMILES notation. Read-outs that look alike come from different tables or passages of the source.

One experiment concerns the target hNAMPT protein (Homo sapiens (Human), UniProt P43490). Nature of the experiment: NAMPT enzyme assay (TR-FRET/HTRF, BodiPY ligand, anti 6His-Tb). The experiment is classed as binding. The following applies: for IC50: NAMPT IC50 range class, read-out: IC50; for inhibition at 1 µM: read-out: Percent Inhibition. The gist of the method:
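TR-FRET binding assay in which His-tagged human NAMPT with anti-6His-Tb is displaced by compound from a BodiPY ligand, incubated 1 h at rt in the dark. Excitation was at 320 nm, with the 520/486 nm emission ratio read. IC50 was fitted from inhibition relative to DMSO controls.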
(In general: Time-resolved FRET reads energy transfer from a long-lived donor to a nearby acceptor.)

The next experiment has as its system PC3 cells. The experiment is described as follows: PC3 growth inhibition (Cell-titer glo, 72 hours). The experiment is classed as cell-based. The following applies: Homo sapiens, PC-3, PC3 cells, 72 hours, Cell-titer glo, read-out: Percent Inhibition (PC3 growth inhibition); for inhibition at 1 µM: compound concentration 1 μM; for inhibition at 1.667 µM: compound concentration 1.667 μM. The gist of the method:
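PC3 cells in RPMI1640 seeded overnight at 37 °C, 5% CO2, then exposed to compound diluted in AIM serum-free medium for 72 h. Viability by CellTiter-Glo luminescence vs DMSO controls; single-concentration % remaining viability (1 μM or 1.667 μM), or GI50/LD50 from curves.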

Chain of hNAMPT protein (P43490 whole entry): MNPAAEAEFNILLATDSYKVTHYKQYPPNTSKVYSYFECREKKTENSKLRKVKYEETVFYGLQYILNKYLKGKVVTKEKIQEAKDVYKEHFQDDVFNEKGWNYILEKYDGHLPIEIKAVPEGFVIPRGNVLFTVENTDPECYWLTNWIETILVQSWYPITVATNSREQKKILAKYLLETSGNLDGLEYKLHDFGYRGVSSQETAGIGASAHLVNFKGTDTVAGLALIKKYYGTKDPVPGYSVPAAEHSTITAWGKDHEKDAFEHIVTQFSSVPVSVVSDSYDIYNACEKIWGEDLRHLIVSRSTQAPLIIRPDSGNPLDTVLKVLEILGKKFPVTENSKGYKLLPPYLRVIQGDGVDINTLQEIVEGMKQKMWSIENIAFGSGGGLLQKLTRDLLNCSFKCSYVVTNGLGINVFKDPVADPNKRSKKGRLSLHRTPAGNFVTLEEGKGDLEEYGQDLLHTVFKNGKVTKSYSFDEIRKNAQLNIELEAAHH

Take `O=C(NCCCn1ccnc1)c1ccc2nc(-c3ccccc3)c(C3=CCOCC3)nc2c1` [Compound I-162, 3-(3,6-dihydro-2H-pyran-4-yl)-N-[3-(1H-imidazol-1-yl)propyl]-2-phenylquinoxaline-6-carboxamide]: the IC50 – broadly, the concentration that gives 50% inhibition – on hNAMPT protein lay in the range of 1 to 2 µM. Besides, the values for the inhibition at 1 µM at hNAMPT protein (compound concentration 1 μM) and in the experiment with PC3 cells were 44% and 1%, respectively.

`O=C(c1ccc2nc(-c3ccc(F)cc3)c(-c3ccc(F)cc3)nc2c1)N1CCC(c2ccccn2)C1` (stereo not drawn) [Compound I-163, [2,3-bis(4-fluorophenyl)quinoxalin-6-yl][3-(pyridin-2-yl)pyrrolidin-1-yl]methanone]: the IC50 at hNAMPT protein was in the range of 2 to 10 µM. The inhibition – broadly, the change of the read-out against control, counted positive when it falls – at 1 µM worked out at 17% at hNAMPT protein (compound concentration 1 μM) and 86% in the experiment with PC3 cells.

As to `O=C(NCCc1nccs1)c1ccc2nc(-c3ccc(F)cc3)c(-c3ccc(F)cc3)nc2c1` [Compound I-164, 2,3-Bis(4-fluorophenyl)-N-[2-(1,3-thiazol-2-yl)ethyl]quinoxaline-6-carboxamide], at hNAMPT protein, the IC50 fell in the range of 0.1 to 0.5 µM and the inhibition at 1 µM was found to be 83%. The inhibition at 1 µM in the experiment on PC3 cells turned out to be 101%.

On to `CN1CC=C(c2nc3ccc(C(=O)NCCCn4ccnc4)cc3nc2-c2ccccc2)CC1` [Compound I-165, N-[3-(1H-imidazol-1-yl)propyl]-2-(1-methyl-1,2,3,6-tetrahydropyridin-4-yl)-3-phenylquinoxaline-6-carboxamide], for which the IC50 at hNAMPT protein lay within 0.1 to 0.5 µM. For the same compound, the inhibition at 1 µM at hNAMPT protein (compound concentration 1 μM) was 78%; in the experiment with PC3 cells, -7%.

For the compound `O=C(NCCCn1ccnc1)c1ccc2nc(-c3ccccc3)c(N3CCCCC3)nc2c1` [Compound I-166, N-[3-(1H-imidazol-1-yl)propyl]-2-phenyl-3-(piperidin-1-yl)quinoxaline-6-carboxamide], the IC50 at hNAMPT protein lay within 2 to 10 µM. In addition, the values for the inhibition at 1 µM on hNAMPT protein (compound concentration 1 μM) and in the experiment with PC3 cells were 31% and 5%, respectively.

`Cn1cc(-c2nc3cc(C(=O)NCCCn4ccnc4)ccc3nc2-c2ccccc2)cn1` [Compound I-167, N-[3-(1H-imidazol-1-yl)propyl]-3-(1-methyl-1H-pyrazol-4-yl)-2-phenylquinoxaline-6-carboxamide]: the IC50 on hNAMPT protein was 2 to 10 µM. Besides, the inhibition at 1 µM at hNAMPT protein (compound concentration 1 μM) came out at 24%; with PC3 cells, 1%.

For the compound `CC(=O)N1CCN(c2nc3cc(C(=O)NCCCn4ccnc4)ccc3nc2-c2ccccc2)CC1` [Compound I-168, 3-(4-Acetylpiperazin-1-yl)-N-[3-(1H-imidazol-1-yl)propyl]-2-phenylquinoxaline-6-carboxamide], the IC50 on hNAMPT protein lay within 0.1 to 0.5 µM. The inhibition at 1 µM came to 84% on hNAMPT protein (compound concentration 1 μM) and 1% in the experiment on PC3 cells.

For the compound `O=C(NCCc1ccccn1)c1ccc2nc(-c3ccc(F)cc3)c(-c3ccc(F)cc3)nc2c1` [Compound I-169, 2,3-bis(4-fluorophenyl)-N-[2-(pyridin-2-yl)ethyl]quinoxaline-6-carboxamide], the IC50 at hNAMPT protein lay within 1 to 2 µM. Moreover, the inhibition at 1 µM at hNAMPT protein (compound concentration 1 μM) was found to be 36%; with PC3 cells it was 93%.

Take `O=C(NCc1ccc2nccn2c1)c1ccc2nc(N3CCCCC3)c(-c3ccc(F)cc3)nc2c1` [Compound I-170]: on hNAMPT protein, the IC50 was less than 0.1 µM. Besides, the inhibition at 1 µM at hNAMPT protein (compound concentration 1 μM) was found to be 98%. Besides, the inhibition at 1.667 µM with PC3 cells came out at 2%.

In the case of `CCOC(=O)CCc1ccc(-c2nc3cc(C(=O)NCCCn4ccnc4)ccc3nc2-c2ccccc2)cc1` [Compound I-171, ethyl 3-[4-(7-{[3-(1H-imidazol-1-yl)propyl]carbamoyl}-3-phenylquinoxalin-2-yl)phenyl]propanoate], on hNAMPT protein, the IC50 was 2 to 10 µM. The inhibition at 1 µM at hNAMPT protein (compound concentration 1 μM) came to 27%; with PC3 cells, 95%.

For `COC1CN(c2nc3ccc(C(=O)NCCCc4ncc[nH]4)cc3nc2-c2ccc(F)cc2)C1` [Compound I-172, 3-(4-fluorophenyl)-N-[3-(1H-imidazol-2-yl)propyl]-2-(3-methoxyazetidin-1-yl)quinoxaline-6-carboxamide], the IC50 at hNAMPT protein is less than 0.1 µM. Besides, the inhibition at 1 µM on hNAMPT protein (compound concentration 1 μM) is more than 99%. Further, the inhibition at 1.667 µM in the experiment on PC3 cells was 2%.

For `O=C(NCCn1ccnc1)c1ccc2nc(N3CCC(C4CCNCC4)CC3)c(-c3ccccc3)nc2c1` [Compound I-173, 2-(4,4′-bipiperidin-1-yl)-N-[2-(1H-imidazol-1-yl)ethyl]-3-phenylquinoxaline-6-carboxamide], on hNAMPT protein, the IC50 fell in the range of 0.1 to 0.5 µM. Further, the inhibition at 1 µM on hNAMPT protein (compound concentration 1 μM) was 83%; in the experiment on PC3 cells it was -1%.

Regarding `O=C(NCCCn1ccnc1)c1ccc2nc(-c3ccccc3)c(-c3ccsc3)nc2c1` [Compound I-174, N-[3-(1H-imidazol-1-yl)propyl]-2-phenyl-3-(3-thienyl)quinoxaline-6-carboxamide], the IC50 on hNAMPT protein was in the range of 0.1 to 0.5 µM. Moreover, the inhibition at 1 µM on hNAMPT protein (compound concentration 1 μM) was 89%; in the experiment on PC3 cells, 1%.

As to `O=C(NCCCn1ccnc1)c1ccc2nc(-c3ccccc3)c(N3CCC3)nc2c1` [Compound I-175, 3-(azetidin-1-yl)-N-[3-(1H-imidazol-1-yl)propyl]-2-phenylquinoxaline-6-carboxamide], the half-inhibitory concentration (IC50) at hNAMPT protein is 2 to 10 µM. The inhibition at 1 µM on hNAMPT protein (compound concentration 1 μM) stood at 20%; in the experiment on PC3 cells, 95%.

Take `O=C(NCCCn1ccnc1)c1ccc2nc(-c3ccccc3)c(-c3cccnc3)nc2c1` [Compound I-176, N-[3-(1H-imidazol-1-yl)propyl]-2-phenyl-3-(pyridin-3-yl)quinoxaline-6-carboxamide]: the IC50 on hNAMPT protein fell in the range of 1 to 2 µM. The results for the inhibition at 1 µM at hNAMPT protein (compound concentration 1 μM) and in the experiment with PC3 cells were 46% and 1%, respectively.

Take `Cn1cncc1CCNC(=O)c1ccc2nc(N3CCOCC3)c(-c3ccc(F)cc3)nc2c1` [Compound I-177, 3-(4-fluorophenyl)-N-[2-(1-methyl-1H-imidazol-5-yl)ethyl]-2-(morpholin-4-yl)quinoxaline-6-carboxamide]: the IC50 on hNAMPT protein was in the range of 0.1 to 0.5 µM. The inhibition at 1 µM on hNAMPT protein (compound concentration 1 μM) stood at 77%. Moreover, in the experiment on PC3 cells, the inhibition at 1.667 µM worked out at 2%.

With `O=C(NCCCc1ncc[nH]1)c1ccc2nc(-c3ccc(F)cc3)c(-c3ccc(F)cc3)nc2c1` [Compound I-178, 2,3-bis(4-fluorophenyl)-N-[3-(1H-imidazol-2-yl)propyl]quinoxaline-6-carboxamide], the IC50 at hNAMPT protein was less than 0.1 µM. The inhibition at 1 µM on hNAMPT protein (compound concentration 1 μM) was 97%. The inhibition at 1.667 µM in the experiment on PC3 cells turned out to be 2%.

For `Cn1cccc1-c1nc2ccc(C(=O)NCCCn3ccnc3)cc2nc1-c1ccccc1` [Compound I-179, N-[3-(1H-imidazol-1-yl)propyl]-2-(1-methyl-1H-pyrrol-2-yl)-3-phenylquinoxaline-6-carboxamide], the 50% inhibitory concentration (IC50) on hNAMPT protein lay in the range of 0.5 to 1 µM. Also, the figures for the inhibition at 1 µM on hNAMPT protein (compound concentration 1 μM) and in the experiment on PC3 cells were 57% and -7%, respectively.

As for `O=C(NCCCc1ccccn1)c1ccc2nc(-c3ccc(F)cc3)c(-c3ccc(F)cc3)nc2c1` [Compound I-180, 2,3-Bis(4-fluorophenyl)-N-[3-(pyridin-2-yl)propyl]quinoxaline-6-carboxamide], the IC50 on hNAMPT protein fell in the range of 2 to 10 µM. Moreover, the inhibition at 1 µM at hNAMPT protein is 27%; with PC3 cells, 102%.

`COc1cccc(-c2nc3ccc(C(=O)NCCc4cccnc4)cc3nc2-c2cccc(OC)c2)c1` [Compound I-181, 2,3-bis(3-methoxyphenyl)-N-[2-(pyridin-3-yl)ethyl]quinoxaline-6-carboxamide]: at hNAMPT protein, the IC50 was less than 0.1 µM. Besides, the inhibition at 1 µM worked out at 100% on hNAMPT protein (compound concentration 1 μM) and 0% in the experiment with PC3 cells.

As for `CS(=O)(=O)c1cccc(-c2nc3ccc(C(=O)NCCCn4ccnc4)cc3nc2-c2ccccc2)c1` [Compound I-182, N-[3-(1H-imidazol-1-yl)propyl]-2-[3-(methylsulfonyl)phenyl]-3-phenylquinoxaline-6-carboxamide], the IC50 at hNAMPT protein is 0.1 to 0.5 µM. Moreover, the inhibition at 1 µM at hNAMPT protein (compound concentration 1 μM) is 83%; with PC3 cells, -7%.

For the compound `COc1cccc(-c2nc3cc(C(=O)NCCCc4ncc[nH]4)ccc3nc2N2CCCCC2)c1` [Compound I-183, N-[3-(1H-imidazol-2-yl)propyl]-3-(3-methoxyphenyl)-2-(piperidin-1-yl)quinoxaline-6-carboxamide], on hNAMPT protein, the IC50 was less than 0.1 µM. For the same compound, the inhibition at 1 µM at hNAMPT protein (compound concentration 1 μM) was more than 99%. Moreover, the inhibition at 1.667 µM in the experiment on PC3 cells was 2%.

For the compound `O=C(NCCc1cnccn1)c1ccc2nc(-c3ccc(F)cc3)c(-c3ccc(F)cc3)nc2c1` [Compound I-184, 2,3-bis(4-fluorophenyl)-N-[2-(pyrazin-2-yl)ethyl]quinoxaline-6-carboxamide], on hNAMPT protein, the IC50 fell in the range of 1 to 2 µM. Moreover, the inhibition at 1 µM at hNAMPT protein (compound concentration 1 μM) was found to be 39%; with PC3 cells, 101%.

As to `COc1cccc(-c2nc3ccc(C(=O)NCCCn4ccnc4)cc3nc2-c2ccccc2)c1` [Compound I-187, N-[3-(1H-imidazol-1-yl)propyl]-2-(3-methoxyphenyl)-3-phenylquinoxaline-6-carboxamide], the IC50 on hNAMPT protein is 0.1 to 0.5 µM. Besides, the inhibition at 1 µM is 84% at hNAMPT protein (compound concentration 1 μM) and -8% in the experiment on PC3 cells.

As to `CC(C)(C)OC(=O)N1CCC(C2CCN(c3nc4ccc(C(=O)NCCCn5ccnc5)cc4nc3-c3ccccc3)CC2)CC1` [Compound I-188, tert-butyl 1′-(6-{[3-(1H-imidazol-1-yl)propyl]carbamoyl}-3-phenylquinoxalin-2-yl)-4,4′-bipiperidine-1-carboxylate], at hNAMPT protein, the IC50 lay in the range of 0.1 to 0.5 µM. The inhibition at 1 µM is 83% at hNAMPT protein (compound concentration 1 μM) and -7% with PC3 cells.

Consider `COc1cccc(-c2nc3cc(C(=O)NCCc4cccnc4)ccc3nc2N2CCOCC2)c1` [Compound I-189, 3-(3-methoxyphenyl)-2-(morpholin-4-yl)-N-[2-(pyridin-3-yl)ethyl]quinoxaline-6-carboxamide], for which the IC50 on hNAMPT protein was less than 0.1 µM. Also, the inhibition at 1 µM at hNAMPT protein (compound concentration 1 μM) was determined as 91%. Further, the inhibition at 1.667 µM in the experiment on PC3 cells worked out at 2%.
